Patent US20210228675A1, “HYPERTROPHIC SCAR INHIBITING COMPOSITION” (FUKUOKA UNIVERSITY, priority 2018, published 2021)
Where two headings read alike, the source gives them in different places. Non-standard residues stand in square brackets, D forms with d. Residues, ends and D or L forms follow the SMILES beside them. Hyp = O=C(O)[C@@H]1C[C@@H](O)CN1

Legend:
[1] = Transfer of Pro-Hyp in blood after administration (LC-MS/MS); assay type: in vivo, C57 BL/6N mice; settings: for Tmax: female, C57 BL/6N, mouse, blood, mice without wound, read-out: time at which blood concentration of Pro-Hyp reached a peak (converted)
Method: To C57 BL/6N mice (8 to 10 weeks of age, female) (N=4, per group) in which no wound site is formed, a physiological saline solution (500 nmol/200 μL) of the dipeptide consisting of the amino acid sequence of Pro-Hyp (which may be hereinafter referred to as simply “Pro-Hyp”) is administered intraperitoneally by injection (single administration) or a physiological saline solution (2500 nmol/200 μL) of Pro-Hyp was orally administered using a probe (single administration). After administration, blood was collected over time and Pro-Hyp occurred in blood was measured by LC-MS/MS method. The measurement conditions of LC-MS/MS method were as follows.
Collected blood was 2 times diluted in physiological saline and then centrifugation was performed under conditions at 20° C., 500×g, for 15 minutes. To the supernatant recovered after the centrifugation, 3 volumes of 100% ethanol were added. The supernatant to which 100% ethanol had been added was centrifuged at 20° C., 13000 rpm, for 15 minutes to perform deproteinization. Subsequently, the deproteinized sample was 10 times diluted in 50 mM ammonium bicarbonate and analyzed by LC-MS/MS. For the LC conditions, the analysis was conducted using CAPCELL PAK C1 UG120 10 mm×I.D. 2.0 mm (OSAKA SODA CO., LTD.) as a guard column and the column Hypersil Gold PFP 150 mm×I.D. 2.1 mm, 5 μm (manufactured by Thermo Fisher Scientific, Inc.). The analysis conditions were Mobile phase A MeOH, Mobile phase B a 2% formic acid aqueous solution containing 2 mM ammonium acetate, injection volume 5 μL, and gradient of Table 1 below.
The MS/MS was conducted using a tandem mass spectrometer (TSQ Vantage (manufactured by Thermo Fisher Scientific, Inc.)) under conditions of Method of ionization: Positive ESI, Spray voltage: 3000 V, Vaporizer: 300° C., Sheath gas: 30, Aux gas: 15, Capillary temperature: 250° C., MRM conditions: Parent Mass 229.1, Product Mass 70, Collision energy: 29 ev, S-Lens: 68.
Moreover, in the intraperitoneal administration, the Pro-Hyp concentration reached very high since it transferred in blood without gastrointestinal absorption. […] The C57 BL/6N mice in which no wound site was formed were used in this experiment, it is considered that a similar result is also obtained with Model-1 mice and Model-2 mice generated from the same line of mice.

[2] = test system: granulation tissue in wound site of abdominal wall circular incision model (Model-2) mice; assay: Formation of granulation tissue by administration of various polypeptides in Model-2 mice; assay type: in vivo, C57 BL/6N mice; settings: Day 7; i.p. once a day for 7 days, doses of Table 7; control sparse; FIG. 9
Method: In this Example, aiming to examine granulation tissue formed in the peritoneum layer under tension, a novel model (Model-2) of granulation tissue formation that occurs between the peritoneum layers, which are under the minimal effect of the healing response from the skin layer and under direct influence of the tension of muscles, was generated in the following procedures. Female C57 BL/6N mice at 8 to 10 weeks of age were used. Anesthesia was introduced by administering 200 μL per animal (0.065 mg/g weight) of the anesthetic Somnopentyl (manufactured by Shering-Plough Corporation) to the peritoneal cavity. After the introduction of anesthesia, abdominal skin was cut open 1.5 cm along the midline using scissors for operations. […] Subsequently, the center part of the abdominal wall was picked up with round tip tweezers with an outside diameter of 3 mm, and the tissue in the central part of the abdominal wall was completely removed surgically in a circle with curved tip micro-operation scissors (Bottom panel in FIG. 1). After the incision, the positions 0.25 cm apart from the upper end and 0.25 cm apart from the bottom end of the incised skin (wound site) were sewed up to remove the tension of the skin. Subsequently, the skin was wrapped with Tegaderm and an underwear-shaped silicon protector was further put on to prevent the self-harm of the wound site. […]

[3] = oral, single administration 2500 nmol/200 μL

Row | Molecule | Tmax ([1]; ip, intraperitoneal, single administration 500 nmol/200 μL) [min] | Tmax [1, 3] [min] | time at which blood concentration decreased to a baseline level ([1]; intraperitoneal, single administration 500 nmol/200 μL) [h] | time at which blood concentration decreased to a baseline level [1, 3] [h] | collagen fibers in granulation tissue, Masson trichrome stain [2]
1 | O=C(O)[C@@H]1C[C@@H](O)CN1C(=O)[C@@H]1CCCN1 [Pro-Hyp] (H-Pro-[Hyp]-OH; N-terminus and C-terminus assumed) | 15 | 15 | 3 | 3 | –
2 | Hyp-Gly | – | – | – | – | the collagen fibers were dense and matured as the tissue
